Measured values: patent US20180360090A1, “NUTRITIONAL COMPOSITIONS AND INFANT FORMULAS TO PROMOTE MYELINATION IN THE BRAIN” (NESTEC S.A., priority 2015, published 2018)

These molecules were tested on brain myelination (myelin water fraction) (assay: Cross-sectional correlation analysis (GLM) of infant formula nutrient composition against brain myelination, measured as MWF by mcDESPOT MRI). Settings: children up to 5 years fed different infant formulas during infancy; voxel-wise correlations, p<0.05 corrected.
Format: in vivo, human
Experimental: MRI brain scans of infants and children between 0 and 5 years were acquired using a white matter imaging technique. This technique provides a quantitative measure, the Myelin Water Fraction (MWF), which is a surrogate marker of myelin content. When mapped as a function of time across early childhood, myelination trajectories can be generated.
Infant formula composition: six infant formulas fed to infants participating in study were analyzed for their composition/level of myelin-relevant nutrients.
Infants included in this study were drawn from a larger longitudinal study of normal brain and behavioral development: the Brown university Assessment of Myelination and Behavior Across Maturation (BAMBAM). To focus on neurotypical development, children with known potential risk factors for learning, neurologic, or psychiatric disorders were specifically excluded during recruitment and enrollment. Thus, children with in utero alcohol or illicit substance exposure, premature (<37 weeks gestation) or multiple birth, fetal ultrasound abnormalities, complicated pregnancy (e.g., preeclampsia), APGAR scores <8, NICU admission, neurological disorder (e.g., head injury, epilepsy), psychiatric or developmental disorders in the infant, parents or siblings (including maternal depression requiring medication) were excluded. Ongoing screenings, such as the MCAT for autism, or CBCL for behavioral problems, were further used to remove enrolled children with clinically concerning behaviors or overt medical conditions (such as autism spectrum disorders).
A combination of retrospective and prospective data were acquired from parents via detailed medical histories and parental interview on type of infant formula used, percentage of breastfeeding to formula feeding, and length of exclusive breastfeeding. This information was updated at each study visit, which occurred approximately every 6 months for children under 2 years, and yearly for older children. Using this information, children were categorized into one of 2 groups: #1. Exclusively formula-fed; and #2. Exclusively breastfed for at least 90 days (3 months). Children who were fed a combination of breastmilk and formula within 3 months were excluded from our analysis. Infants within the exclusively formula-fed group were further sub-divided based on parental reports of the main infant formula used throughout the first 3 months. Main formula was defined as that given 90% of the time or more (in the case were parents used an alternate brand during vacation, for example).
Using these criteria, 94 exclusively formula-fed infants and young children were selected into group #1. These included 13 children who received formula #2; 28 who received formula #5; 8 who received formula #3; 39 who received formula #4; 5 who received formula #1 and 1 who received formula #6. A sample of 52 exclusively breast-fed infants were also selected and matched to the over formula-fed group with regards to mean age, gestation duration, birth weight, male:female ratio, ethnicity ratio, maternal education, family size, and number of languages spoken in the home (in addition to English).
Each infant was scanned using the mcDESPOT (multicomponent Driven Equilibrium Single Pulse Observation of T1 and T2) white matter imaging technique Deoni et al. (Magn. Reson. Med. 2008, 60:1372-1387), which provides a quantitative measure of the myelin water fraction (MWF) at each imaging point throughout the brain. All infants were scanned during natural (i.e. non-sedated) sleep using acoustically-muffled mcDESPOT imaging protocols. Total imaging times ranged from 19 minutes for the youngest toddlers to 24 minutes for the older 4 year-old children.
All data were acquired on a Siemens 3T Tim Trio scanner equipped with a 12 channel head RF array.
With `[Ca]` [Calcium] the “nutritional drivers for myelination (final general linear model)” value (“nutritional drivers for myelination” below) was “identified drivers”.
`C[N+](C)(C)CCO` [Choline] was tested, and the “nutritional drivers for myelination” value was “identified drivers”.
For `[Mg]` [Magnesium], the “nutritional drivers for myelination” value was “identified drivers”.
With `[P]` [Phosphorus] the “nutritional drivers for myelination” value was “identified drivers”.
Iron was tested, and the “nutritional drivers for myelination” value was “identified drivers”.
With Vitamin B12 the “nutritional drivers for myelination” value was “identified drivers”.
In the case of Zinc, the “nutritional drivers for myelination” value is reported as “identified drivers”.
With sphingomyelin the “nutritional drivers for myelination” value was “identified drivers”.

Same assay, conditions: children up to 5 years fed different infant formulas; in particular in the visual cortex
For `CCCCC/C=C\C/C=C\C/C=C\C/C=C\CCCC(=O)O` [ARA, arachidonic acid], the “association with myelination (myelin water fraction) over time in the brain” value was “significant association with myelination”.
